# Source: BindingDB's records for patent US20250136619 (Halda Therapeutics OPCO, 2025)
# Target: Tyrosine-protein kinase BTK (Homo sapiens, UniProt Q06187)
# Assay: Assay for Binding Affinity to BTK
# Protocol: Compounds were tested using a KdELECT assay. Kinase-tagged T7 phage strains were prepared in an E. coli host derived from the BL21 strain. E. coli were grown to log-phase and infected with T7 phage and incubated with shaking at 32° C. until lysis. The lysates were centrifuged and filtered to remove cell debris. The remaining kinases were produced in HEK-293 cells and subsequently tagged with DNA for qPCR detection. Streptavidin-coated magnetic beads were treated with biotinylated small molecule ligands for 30 minutes at room temperature to generate affinity resins for kinase assays. The liganded beads were blocked with excess biotin and washed with blocking buffer (SeaBlock (Pierce), 1% BSA, 0.05% Tween 20, 1 mM DTT) to remove unbound ligand and to reduce non-specific binding. Binding reactions were assembled by combining kinases, liganded affinity beads, and test compounds in 1× binding buffer (20% SeaBlock, 0.17×PBS, 0.05% Tween 20, 6 mM DTT). Test compounds were prepared as 111X stocks in 100% DMSO. Kd values were determined using an 11-point 3-fold compound dilution series with three DMSO control points. All compounds for Kd measurements are distributed by acoustic transfer (non-contact dispensing) in 100% DMSO. The compounds were then diluted directly into the assays such that the final concentration of DMSO was 0.9%. […] The kinase concentration in the eluates was measured by qPCR.
# Tyrosine-protein kinase BTK, sequence (Q06187 whole entry): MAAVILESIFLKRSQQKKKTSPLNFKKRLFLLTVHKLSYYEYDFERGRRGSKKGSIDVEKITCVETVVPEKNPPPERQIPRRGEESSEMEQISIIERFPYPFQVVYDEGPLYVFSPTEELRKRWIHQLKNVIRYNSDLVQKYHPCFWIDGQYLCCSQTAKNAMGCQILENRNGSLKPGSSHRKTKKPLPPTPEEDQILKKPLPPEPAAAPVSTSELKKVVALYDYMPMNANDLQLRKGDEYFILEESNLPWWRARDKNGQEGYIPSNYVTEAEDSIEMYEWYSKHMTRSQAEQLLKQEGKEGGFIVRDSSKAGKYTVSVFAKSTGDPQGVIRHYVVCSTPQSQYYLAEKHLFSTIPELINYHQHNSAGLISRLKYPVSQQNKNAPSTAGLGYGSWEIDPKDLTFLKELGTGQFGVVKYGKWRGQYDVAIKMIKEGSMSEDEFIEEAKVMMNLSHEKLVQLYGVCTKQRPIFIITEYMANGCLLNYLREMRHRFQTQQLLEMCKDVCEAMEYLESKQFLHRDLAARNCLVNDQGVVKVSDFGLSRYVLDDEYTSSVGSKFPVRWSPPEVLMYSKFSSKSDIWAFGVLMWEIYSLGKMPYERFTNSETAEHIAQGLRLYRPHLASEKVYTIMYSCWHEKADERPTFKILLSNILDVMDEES
smiles,measurement,value
"CCc1cnn2c(NCc3ccc(OCCOCCOCCOCCOCCOCCOCCOCCOCCOC/C=C/C(=O)N4CCC[C@@H](n5nc(-c6ccc(Oc7ccccc7)cc6)c6c(N)ncnc65)C4)nc3)cc(N3CCCC[C@H]3CCO)nc12 [US20250136619, Compound I-47]",Kd,< 0.05 µM
